In ChEMBL document CHEMBL4229444, “Design, synthesis and docking study of 4-arylpiperazine carboxamides as monoamine neurotransmitters reuptake inhibitors” (Bioorg Med Chem, 2018):

Tests used:
Type in all cases: cell-based
[1] = molecular target: Sodium-dependent serotonin transporter (Homo sapiens, UniProt P31645); test: Inhibition of human SERT expressed in HEK293 cells assessed as reduction in [3H]5-HT uptake by micro beta scintillation counting analysis
[2] = molecular target: Sodium-dependent noradrenaline transporter (Homo sapiens, UniProt P23975); test: Inhibition of human NET expressed in HEK293 cells assessed as reduction in [3H]-NE uptake by micro beta scintillation counting analysis
[3] = molecular target: Sodium-dependent dopamine transporter (Homo sapiens, UniProt Q01959); test: Inhibition of human DAT expressed in HEK293 cells assessed as reduction in [3H]-DA uptake by micro beta scintillation counting analysis
Sodium-dependent dopamine transporter, sequence (Q01959 whole entry): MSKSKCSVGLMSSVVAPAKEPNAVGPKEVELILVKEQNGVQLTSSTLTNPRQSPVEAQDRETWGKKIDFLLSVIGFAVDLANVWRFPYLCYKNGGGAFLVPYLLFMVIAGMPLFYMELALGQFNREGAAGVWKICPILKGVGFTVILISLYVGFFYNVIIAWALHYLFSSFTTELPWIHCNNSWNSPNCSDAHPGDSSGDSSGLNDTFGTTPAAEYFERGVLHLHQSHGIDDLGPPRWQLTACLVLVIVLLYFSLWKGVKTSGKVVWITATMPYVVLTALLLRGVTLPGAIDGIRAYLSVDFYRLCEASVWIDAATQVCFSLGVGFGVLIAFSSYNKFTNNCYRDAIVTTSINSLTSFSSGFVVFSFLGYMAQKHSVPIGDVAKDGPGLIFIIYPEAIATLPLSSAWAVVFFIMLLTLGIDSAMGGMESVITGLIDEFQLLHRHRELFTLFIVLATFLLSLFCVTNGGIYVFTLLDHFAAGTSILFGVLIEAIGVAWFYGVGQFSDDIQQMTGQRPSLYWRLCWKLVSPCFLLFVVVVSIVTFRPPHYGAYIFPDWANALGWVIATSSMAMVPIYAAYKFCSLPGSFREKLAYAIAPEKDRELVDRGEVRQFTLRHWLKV

Sodium-dependent noradrenaline transporter, sequence (P23975 whole entry): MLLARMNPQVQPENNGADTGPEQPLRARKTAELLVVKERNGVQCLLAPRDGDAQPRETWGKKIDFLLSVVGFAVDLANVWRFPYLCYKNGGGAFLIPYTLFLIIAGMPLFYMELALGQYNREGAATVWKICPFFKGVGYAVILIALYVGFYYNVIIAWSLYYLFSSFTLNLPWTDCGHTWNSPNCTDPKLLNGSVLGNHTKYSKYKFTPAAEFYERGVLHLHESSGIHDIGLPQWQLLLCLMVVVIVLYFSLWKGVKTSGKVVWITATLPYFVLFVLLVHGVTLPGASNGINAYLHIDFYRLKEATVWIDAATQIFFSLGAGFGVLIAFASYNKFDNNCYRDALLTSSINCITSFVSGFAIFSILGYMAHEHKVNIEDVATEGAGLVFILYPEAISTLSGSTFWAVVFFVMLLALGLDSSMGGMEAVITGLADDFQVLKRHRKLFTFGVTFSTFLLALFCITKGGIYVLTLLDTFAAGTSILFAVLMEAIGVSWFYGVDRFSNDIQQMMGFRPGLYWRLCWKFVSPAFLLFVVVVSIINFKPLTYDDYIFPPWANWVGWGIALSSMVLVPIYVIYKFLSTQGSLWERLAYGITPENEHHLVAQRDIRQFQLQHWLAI
Sodium-dependent serotonin transporter, sequence (P31645 whole entry): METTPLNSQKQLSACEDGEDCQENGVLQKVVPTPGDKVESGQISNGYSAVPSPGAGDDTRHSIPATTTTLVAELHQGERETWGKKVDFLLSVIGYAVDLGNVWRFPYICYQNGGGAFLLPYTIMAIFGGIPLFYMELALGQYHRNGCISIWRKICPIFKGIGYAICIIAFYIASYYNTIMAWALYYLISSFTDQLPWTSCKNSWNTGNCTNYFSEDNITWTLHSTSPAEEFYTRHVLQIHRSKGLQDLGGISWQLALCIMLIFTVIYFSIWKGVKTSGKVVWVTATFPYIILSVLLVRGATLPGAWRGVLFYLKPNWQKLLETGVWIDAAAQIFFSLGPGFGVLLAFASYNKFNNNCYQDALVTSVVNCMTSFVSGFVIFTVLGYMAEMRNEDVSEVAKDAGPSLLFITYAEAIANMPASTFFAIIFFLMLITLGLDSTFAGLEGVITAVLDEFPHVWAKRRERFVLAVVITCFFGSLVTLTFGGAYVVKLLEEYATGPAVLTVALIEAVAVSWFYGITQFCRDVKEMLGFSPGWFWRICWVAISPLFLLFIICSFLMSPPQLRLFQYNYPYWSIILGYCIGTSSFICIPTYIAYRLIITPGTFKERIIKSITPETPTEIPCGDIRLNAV

Row | Structure (SMILES) | IC50 [1] | IC50 [2] | IC50 [3]
1 | O=C(NCCCN1CCN(c2ncccn2)CC1)c1cc(Cl)cc(Cl)c1 | > 10 µM | > 10 µM | > 10 µM
2 | O=C(NCCCN1CCN(c2cccc(Cl)c2Cl)CC1)c1cc2ccccc2s1 | 0.4 µM | 3.66 µM | –
3 | O=C(NCCCN1CCN(c2ncccn2)CC1)c1ccc2ccccc2n1 | > 10 µM | > 10 µM | > 10 µM
4 | O=C(NCCCN1CCN(c2ccccn2)CC1)c1cccc2ccccc12 | > 10 µM | > 10 µM | > 10 µM
5 | O=C(NCCCN1CCN(c2ncccn2)CC1)c1cccc2ccccc12 | > 10 µM | > 10 µM | > 10 µM
6 | Cc1ccc(N2CCN(CCCNC(=O)c3ccc4ccccc4c3)CC2)cc1 | 0.46 µM | 2.69 µM | –
7 | O=C(NCCCN1CCN(c2ccc(C(F)(F)F)cc2)CC1)c1cc2ccccc2o1 | 0.741 µM | > 10 µM | –
8 | Cc1ccc(N2CCN(CCCNC(=O)c3ccc4ccccc4n3)CC2)cc1 | 0.23 µM | > 10 µM | –
9 | O=C(NCCCN1CCN(c2ccccn2)CC1)c1ccc2ccccc2n1 | 6.94 µM | > 10 µM | > 10 µM
10 | O=C(NCCCN1CCN(c2cccc(Cl)c2Cl)CC1)c1cc(Cl)cc(Cl)c1 | > 10 µM | > 10 µM | > 10 µM
11 | O=C(NCCCN1CCN(c2ccc(Cl)cc2)CC1)c1ccc2ccccc2c1 | 0.28 µM | > 10 µM | –
12 | O=C(NCCCN1CCN(c2ccc(Cl)cc2)CC1)c1ccc2ccccc2n1 | 1.32 µM | > 10 µM | –
13 | O=C(NCCCN1CCN(c2ccc(Cl)cc2)CC1)c1cc2ccccc2s1 | 0.55 µM | 1.34 µM | –
14 | O=C(NCCCN1CCN(c2ccc(Cl)c(Cl)c2)CC1)c1ccc2ccccc2n1 | 0.273 µM | > 10 µM | –
15 | O=C(NCCCN1CCN(c2ncccn2)CC1)c1ccc2ccccc2c1 | > 10 µM | > 10 µM | > 10 µM
16 | O=C(NCCCN1CCN(c2cccc(Cl)c2Cl)CC1)c1ccc2ccccc2c1 | 0.74 µM | 0.26 µM | > 10 µM
17 | COc1ccccc1N1CCN(CCCNC(=O)c2ccc3ccccc3n2)CC1 | > 10 µM | > 10 µM | –
18 | O=C(NCCCN1CCN(c2cccc(Cl)c2Cl)CC1)c1cccc2ccccc12 | 4.27 µM | > 10 µM | > 10 µM
19 | O=C(NCCCN1CCN(c2ccccn2)CC1)c1cc(Cl)cc(Cl)c1 | > 10 µM | > 10 µM | > 10 µM
20 | O=C(NCCCN1CCN(c2ccc(Cl)cc2Cl)CC1)c1ccc2ccccc2n1 | 6.85 µM | > 10 µM | –
21 | O=C(NCCCN1CCN(c2cccc(Cl)c2Cl)CC1)c1ccc(-c2ccccc2)cc1 | 1.01 µM | 3.15 µM | –
22 | O=C(NCCCN1CCN(c2cccc(Cl)c2Cl)CC1)c1cc2ccccc2o1 | > 10 µM | > 10 µM | –
23 | COc1ccccc1N1CCN(CCCNC(=O)c2ccc(-c3ccccc3)cc2)CC1 | 4.46 µM | 4.96 µM | –
24 | O=C(NCCCN1CCN(c2ccccn2)CC1)c1ccc2ccccc2c1 | 9.64 µM | > 10 µM | > 10 µM
25 | O=C(NCCCN1CCN(c2ccccc2)CC1)c1ccc2ccccc2n1 | > 10 µM | > 10 µM | –
26 | COc1ccc(N2CCN(CCCNC(=O)c3ccc4ccccc4n3)CC2)cc1 | 0.23 µM | 6.07 µM | –
27 | O=C(NCCCN1CCN(c2cccc(Cl)c2Cl)CC1)c1ccc2ccccc2n1 | 1.17 µM | 2.55 µM | > 10 µM
